Assay results from article PMC8765781, “A platform of assays for the discovery of anti-Zika small-molecules with activity in a 3D-bioprinted outer-blood-retina model” (PLoS ONE, 2022).
Where two headings read alike, the source gives them in different places.

Test system: wild-type ZIKV (Ugandan MR766 strain) in Vero cells
Test: ZIKV cytopathic effect (CPE) inhibition qHTS assay, CellTiter-Glo readout
Type: cell-based, Zika virus
Details: for Emax: read-out: Max response
[1] = Zika virus, Vero, read-out: Log AC50 (M) (converted)
[2] = Zika virus, Vero, read-out: Log AC50 (converted)

CC1=CC2(O)/C=C/C(C)(O)C(O)C(O)/C=C/C(=O)OC23C(=O)NC(CC(C)C)C3C1C (stereo not drawn) [NCGC00381121-01]
CC-v2 (curve class classification of the dose response curve): -3 | Efficacy: -74.853 | AC50 (Zika virus, Vero): 1.59e-05 M | AC50 [1]: 1.59e-05 M

CCOC(=O)C1=C(N)Oc2ccc(Br)cc2C1C(C#N)C(=O)OCC (stereo not drawn) [NCGC00025207-15]
Efficacy: -30.652 | AC50 [1]: 7.31e-05 M

C[C@@H]1O[C@@H](O[C@H]2[C@H](O[C@H]3CC[C@@]4(C)C(CC[C@]5(C)C4C=C[C@]46OC[C@@]7(CCC(C)(C)C[C@H]74)[C@@H](O[C@@H]4O[C@@H](C)[C@H](O)[C@@H](O)[C@H]4O)C[C@]65C)[C@]3(C)CO)O[C@H](CO)[C@@H](O)[C@@H]2O[C@@H]2O[C@H](CO)[C@@H](O)[C@H](O)[C@H]2O)[C@H](O)[C@H](O)[C@H]1O (stereo partly drawn) [NCGC00384707-01]
Efficacy: -27.107 | AC50 (Zika virus, Vero): 6.18e-06 M | AC50 [1]: 6.18e-06 M

C=C1C(=O)O[C@@H]2C3C(=C(C)[C@@H](O)[C@@H](OC(=O)/C(=C/C)COC(C)=O)[C@@H]12)C(=O)[C@H]1O[C@@]31C (stereo partly drawn) [NCGC00168883-03]
CC-v2 (curve class classification of the dose response curve): -2.1 | Efficacy: -116.882 | AC50 (Zika virus, Vero): 3.17e-05 M | AC50 [1]: 3.17e-05 M

CC(=O)O[C@@]1(C)C[C@@H](O)[C@]2(O)C=CO[C@@H](O[C@@H]3O[C@H](CO)[C@@H](O)[C@H](O)[C@H]3O)[C@@H]21 [NCGC00169032-03]
Curve class: -3 | Efficacy: -81.683 | AC50 (Zika virus, Vero): 1.42e-05 M | AC50 [2]: 1.42e-05 M | Emax (Zika virus, Vero): 1.21%

COc1cccc(C)c1C(=O)O[C@@H]1C[C@H](O[C@H]2[C@H](O)C[C@H](O[C@@H]3CCC[C@H]4[C@H]3C=C[C@@H]3CCCC/C=C/[C@H]5C=C(C(=O)O)[C@@H](C)C[C@@]56OC(=O)C(=C6O)OC(=O)[C@@]34C)O[C@@H]2C)O[C@H](C)[C@H]1O [NCGC00386109-01]
Efficacy: -37.18 | AC50 (Zika virus, Vero): 1.23e-05 M | AC50 [1]: 1.23e-05 M

COC(=O)C1=C(C)NC(C)=C(C(=O)OC)C1c1cccc(NC(=O)NCCCN2CCC(c3cccc(OC)c3)CC2)c1 [NCGC00485144-01]
Efficacy: -27.731 | AC50 (Zika virus, Vero): 7.31e-05 M | AC50 [1]: 7.31e-05 M

Cc1cc(N2CCN(C(=O)Oc3ccc(-c4ccccc4)cn3)CC2)c2ccccc2n1 [NCGC00386928-01]
CC-v2 (curve class classification of the dose response curve): -3 | Efficacy: -62.282

CC(=O)OC[C@]12C[C@H](O)C(C)=C[C@H]1O[C@@H]1[C@H](O)[C@@H](O)[C@@]2(C)[C@]12CO2 [NCGC00380760-01]
CC-v2 (curve class classification of the dose response curve): -1.2 | Efficacy: -57.268 | Log AC50 (M): -4.894 M | Max Resp: -47.163 | AC50 (read-out: AC50): 1.28e-05 M

COc1cc(O)c2c(c1)/C=C/C[C@H](O)[C@H](O)C(=O)/C=C\C[C@H](C)OC2=O [NCGC00186421-07]
CC-v2 (curve class classification of the dose response curve): -3 | Efficacy: -83.256

CC(=O)O[C@H]1CC2C(COC(=O)CC(C)C)=CO[C@@H](OC(=O)CC(C)C)C2[C@]12CO2 (stereo partly drawn) [NCGC00385012-01]
CC-v2 (curve class classification of the dose response curve): -3 | Efficacy: -34.82 | AC50 (Zika virus, Vero): 3.17e-05 M | AC50 [1]: 3.17e-05 M

O=C(CCN1CCN(C(=O)OCc2cc(Cl)cc(Cl)c2)CC1)c1ccc2[nH]c(=O)oc2c1 [NCGC00346939-05]
Efficacy: -25.5 | AC50 (Zika virus, Vero): 7.31e-05 M | AC50 [1]: 7.31e-05 M

CC1(C)CC=C(c2cnc3ccccc3c2)c2cc(C(=O)Nc3ccc(C(=O)O)cc3)ccc21 [NCGC00370906-01]
Efficacy: -33.992 | AC50 (Zika virus, Vero): 5.17e-05 M | AC50 [1]: 5.17e-05 M

Cc1cc2c(F)c(Oc3ncnn4cc(OCC(C)O)c(C)c34)ccc2[nH]1 (stereo not drawn) [NCGC00389770-01]
Efficacy: -29.933 | AC50 (Zika virus, Vero): 6.51e-05 M | AC50 [1]: 6.51e-05 M

CC(C)c1c(O)ccc2c1CC[C@H]1C(C)(C)CCC[C@]21C [NCGC00385162-01]
Curve class: -3 | Efficacy: -41.688 | AC50 (Zika virus, Vero): 5.8e-05 M | AC50 [2]: 5.8e-05 M | Emax (Zika virus, Vero): -36.8%
